Measurements published in publication PMC10523748, “Cytotoxicity, acute and sub-chronic toxicities of the leaves of Bauhinia thonningii (Schumach.) Milne-Redh. (Caesalpiniaceae)” (BMC Complementary Medicine and Therapies, 2023).
Like-named read-outs stand apart in the source and are kept apart here.

Legend:
U87MG glioblastoma cells = experiment: RRA cytotoxicity, U87MG; conditions: Homo sapiens, U-87 MG, 72 h
Experimental: (§3) The sources of the HepG2 hepatocarcinoma [27], U87MG glioblastoma cells and its resistant epidermal growth factor receptor (EGFR) transfected subline, U87MG.ΔEGFR [28], HCT116 p53^+/+ colon adenocarcinoma cells and its resistant knock-out congener, HCT116 p53^−/− [29], MDA-MB-231-pcDNA3 breast adenocarcinoma cells and its multidrug-resistant breast cancer resistance protein (BCRP)-transfected MDA-MB-231-BCRP clone 23 subline [30] have also been described. To compare the activity of samples in HepG2 cells, the AML12 hepatocytes were used [31]. […] These culture media were used as complete media with additional 10% fetal bovine serum and 1% penicillin/streptomycin (Invitrogen, Eggenstein, Germany).
(§4) Botanicals were tested in the concentration range of 0.63–80 µg/mL, the isolated compounds at 0.78—100 µM; the treated cells were incubated for 72 h; the fluorescence was measured at the excitation wavelength of 544 nm and at the emission wavelengths of 590 nm using Infinite M2000 Pro™ plate reader (Tecan, Crailsheim, Germany).

[1] = tested on: HepG2 hepatocarcinoma cells; experiment: RRA cytotoxicity, HepG2; conditions: Homo sapiens, HepG2, 72 h
Experimental: as §3, §4

[2] = tested on: CEM/ADR5000 leukemia cells (P-gp-overexpressing); experiment: RRA cytotoxicity, CEM/ADR5000; conditions: for IC50: Homo sapiens, ADR5000, 72 h; for Degree of resistance: IC50 CEM/ADR5000 versus CCRF-CEM
Text: These culture media were used as complete media with additional 10% fetal bovine serum and 1% penicillin/streptomycin (Invitrogen, Eggenstein, Germany).

U87MG.ΔEGFR cells = experiment: RRA cytotoxicity, U87MG.ΔEGFR; conditions: for IC50: Homo sapiens, 72 h; for Degree of resistance: IC50 U87MG.ΔEGFR versus U87MG
Experimental: (§5) The sources of the HepG2 hepatocarcinoma [27], U87MG glioblastoma cells and its resistant epidermal growth factor receptor (EGFR) transfected subline, U87MG.ΔEGFR [28], HCT116 p53^+/+ colon adenocarcinoma cells and its resistant knock-out congener, HCT116 p53^−/− [29], MDA-MB-231-pcDNA3 breast adenocarcinoma cells and its multidrug-resistant breast cancer resistance protein (BCRP)-transfected MDA-MB-231-BCRP clone 23 subline [30] have also been described. […] These culture media were used as complete media with additional 10% fetal bovine serum and 1% penicillin/streptomycin (Invitrogen, Eggenstein, Germany).
as §4

[3] = tested on: HCT116 p53^+/+ colon adenocarcinoma cells; experiment: RRA cytotoxicity, HCT116 p53^+/+; conditions: Homo sapiens, HCT-116, 72 h
Experimental: as §3, §4

HCT116 p53^−/− cells = experiment: RRA cytotoxicity, HCT116 p53^−/−; conditions: for IC50: Homo sapiens, HCT-116, 72 h; for Degree of resistance: IC50 HCT116 p53^−/− versus HCT116 p53^+/+
Experimental: as §5, §4

MDA-MB-231-BCRP cells = experiment: RRA cytotoxicity, MDA-MB-231-BCRP; conditions: for IC50: Homo sapiens, MDA-MB-231/BCRP, 72 h; for Degree of resistance: IC50 MDA-MB-231-BCRP versus MDA-MB-231-pcDNA
Experimental: as §5, §4

[4] = tested on: MDA-MB-231-pcDNA breast adenocarcinoma cells; experiment: RRA cytotoxicity, MDA-MB-231-pcDNA; conditions: Homo sapiens, 72 h
Experimental: as §3, §4

normal AML12 hepatocytes = experiment: RRA cytotoxicity, normal AML12 hepatocytes; conditions: for Selectivity index: IC50 in AML12 versus IC50 in HepG2; for IC50: Mus musculus, AML12, 72 h
[5] = tested on: 9 tested cancer cell lines; experiment: RRA cytotoxicity, whole panel of cancer cell lines; conditions: for IC50: Homo sapiens, 72 h, read-out: IC50 against all the investigated cancer cell lines
CCRF-CEM leukemia cells = experiment: Resazurin reduction assay (RRA) cytotoxicity, CCRF-CEM; conditions: Homo sapiens, 72 h
CCRF-CEM cells = experiment: Apoptosis, annexin V/PI staining and flow cytometry; format: cell-based, human; conditions: 24 h, non-treated cells 0.4%
Experimental: The concentration of samples used and CCRF-CEM cells were those as reported above under the standard cell culture conditions. To detect the apoptotic cells, the fluorescein isothiocyanate (FITC)-conjugated annexin V/PI assay kit (eBioscience™ Annexin V; Invitrogen, San Diego, USA) was applied to treated cells after 24 h incubation followed by the measurements with BD Accury C6 Flow Cytometer (BD Biosciences). The assays were performed separately three times and in triplicate.

[6] = tested on: caspases 3/7 in CCRF-CEM cells; experiment: Caspase-Glo 3/7 assay; format: cell-based, human; conditions: 6 h, versus untreated cells
Experimental: (§1) The amount of the treated cells was 1.5 × 10^4 cells for the caspase 3/7 assay or 3 × 10^4 cells for the caspase 8 and caspase 9 assays in 100 µL. The treated cells were then incubated for 6 h under the standard cell culture conditions as described above. Subsequently, the activity of caspases was detected by a spectrophotometry measurement of luminescence using 100 µL caspase solution from the Caspase-Glo 3/7, 8, and 9 Assay kits (Promega, Mannheim, Germany) with an Infinite M2000 ProTM plate reader (Tecan).

[7] = tested on: caspase 8 in CCRF-CEM cells; experiment: Caspase-Glo 8 assay; format: cell-based, human; conditions: 6 h, versus untreated cells
Experimental: as §1

[8] = tested on: caspase 9 in CCRF-CEM cells; experiment: Caspase-Glo 9 assay; format: cell-based, human; conditions: 6 h, versus untreated cells
Experimental: as §1

[9] = tested on: mitochondrial membrane potential (MMP) of CCRF-CEM cells; experiment: MMP analysis, JC-1 staining and flow cytometry; format: cell-based, human; conditions: 24 h
Experimental: (§2) The treated cells (1 mL; 1 × 10^6 cells) were incubated for 24 h under the standard cell culture condition. Cells were further stained for 30 min with 10 µL of staining solution ([…] or H2DCFH-DA solution for ROS evaluation) according to the manufacturer’s protocol. Using the LSRFortessa FACS analyzer (Becton–Dickinson, Heidelberg, Germany), the amount of 1 × 10^4 cells was further measured as described earlier.

[10] = tested on: reactive oxygen species (ROS) production in CCRF-CEM cells; experiment: ROS production, H2DCFH-DA staining and flow cytometry; format: cell-based, human; conditions: 24 h
Experimental: as §2

[11] = tested on: human hepatocellular carcinoma HuH7 cells; conditions: cited from earlier work
MCF-7 cells = tested on: MCF-7 cells; design: method as in PMID 22213398; conditions: cited from earlier work
[12] = tested on: cancer cell lines tested in the current work; design: method as in PMID 30703492; conditions: cited from earlier work

| melting point [°C] | Compound | IC50 (U87MG glioblastoma cells) [µM] | IC50 [1] [µM] | IC50 [2] [µM] | Degree of resistance [2] | IC50 (U87MG.ΔEGFR cells) [µM] | Degree of resistance (U87MG.ΔEGFR cells) | IC50 [3] [µM] | IC50 (HCT116 p53^−/− cells) [µM] | Degree of resistance (HCT116 p53^−/− cells) | IC50 (MDA-MB-231-BCRP cells) [µM] | Degree of resistance (MDA-MB-231-BCRP cells) | IC50 [4] [µM] | Selectivity index (normal AML12 hepatocytes) | IC50 (normal AML12 hepatocytes) [µM] | IC50 (CCRF-CEM leukemia cells) [µM] | further results |
| --- | --- | --- | --- | --- | --- | --- | --- | --- | --- | --- | --- | --- | --- | --- | --- | --- | --- |
| 195 to 197 | COc1ccc(-c2oc3cc(O)c(C)c(O)c3c(=O)c2OC)cc1O [Compound 1, 6-C-methylquercetin-3, 4'-dimethyl ether] | 27.2 ± 3.07 | 23.5 ± 0.59 | 10.3 ± 0.44 | 0.72 | 26.6 ± 1.13 | 0.98 | 21.2 ± 2.45 | 10.8 ± 1.11 | 0.51 | 17 ± 2.05 | 1.51 | 11.3 ± 1.04 | > 2.13 | > 50 | 14.2 ± 0.94 | IC50 [5]: < 50 µM |
| 195 to 197 | COc1cc2oc(-c3ccc(O)c(O)c3)c(OC)c(=O)c2c(O)c1C [Compound 2, 6-C-methylquercetin-3,7-dimethyl ether] | 24.8 ± 2.22 | 19.6 ± 1.44 | 9.11 ± 0.18 | 0.76 | 21.1 ± 2.4 | 0.85 | 12.3 ± 1.24 | 9.2 ± 0.45 | 0.75 | 14.3 ± 1.12 | 1.45 | 9.84 ± 0.66 |  | > 50 | 12 ± 1.25 |  |
| 185 to 187 | COc1cc(-c2oc3cc(OC)c(C)c(O)c3c(=O)c2OC)ccc1O [Compound 3, 6-C-methylquercetin 3,7,3'-trimethyl ether] | 31 ± 2.65 | 23.6 ± 3.23 | 10.2 ± 0.3 | 0.57 | 19.8 ± 0.96 | 0.64 | 19.8 ± 0.78 | 17.2 ± 0.83 | 0.87 | 13.2 ± 1.48 | 1.20 | 11 ± 0.58 |  | > 50 | 17.9 ± 1.67 | IC50 [5]: < 50 µM |
|  | C[C@@H]1OC(Oc2c(-c3ccc(O)c(O)c3)oc3cc(O)cc(O)c3c2=O)[C@H](O)[C@H](O)[C@H]1O (stereo partly drawn) [Compound 5, quercetin-3-O-L-rhamnopyranoside] | 23.7 ± 1.77 | 28.3 ± 1.74 | 7.21 ± 0.61 | 0.83 | 31.1 ± 1.85 | 1.31 | 17.9 ± 1.26 | 13.2 ± 1.14 | 0.73 | 16.8 ± 1.26 | 2.32 | 7.24 ± 0.47 | > 1.77 | > 50 | 8.73 ± 0.62 |  |
|  | O=c1c(O[C@@H]2O[C@H](CO)[C@@H](O)[C@H](O)[C@H]2O)c(-c2ccc(O)c(O)c2)oc2cc(O)cc(O)c12 [Compound 6, quercetin-3-O-β-glucopyranoside] | 19 ± 2.01 | 21.5 ± 2.25 | 7.88 ± 0.58 | 0.90 | 33.5 ± 2.79 | 1.75 | 21.8 ± 2.11 | 12.5 ± 1.36 | 0.57 | 12.3 ± 0.97 | 1.76 | 6.99 ± 0.28 | above 2 | > 50 | 9.12 ± 0.59 |  |
| 285 to 287 | COc1c(C)c(O)c2c(=O)c(OC)c(-c3ccc(O)cc3)oc2c1C [Compound 7, 6,8-C-dimethylkaempferol 3,7-dimethyl ether] | 19.3 ± 1.62 | 30.7 ± 1.86 | 2.86 ± 0.17 | 0.43 | 18 ± 2.21 | 0.93 | 19.5 ± 2.05 | 9.71 ± 0.76 | 0.50 | 8.15 ± 0.73 | 4.22 | 1.93 ± 0.19 | > 1.63 | > 50 | 6.61 ± 0.41 |  |
| 250 to 253 | COc1c(-c2ccc(O)cc2)oc2c(C)c(O)c(C)c(O)c2c1=O [Compound 8, 6,8-C-dimethylkaempferol-3-methyl ether] | 8.01 ± 0.84 | 19.4 ± 2.07 | 2.42 ± 0.3 | 0.80 | 15.4 ± 0.64 | 1.92 | 9.59 ± 0.84 | 3.41 ± 0.35 | 0.36 | 8.26 ± 0.66 | 3.53 | 2.34 ± 0.31 |  | > 50 | 3.03 ± 0.37 | Early apoptosis, annexin V (+)/PI (-) cells, highest proportion (CCRF-CEM cells): ≤ 67.3%; Increase of caspases 3/7 activity [6]: 4.41 fold; Increase of caspase 8 activity [7]: 3.63 fold; Increase of caspase 9 activity [8]: 4.22 fold; Effect on the integrity of the MMP [9]: strongly altered the integrity of the MMP; Q1, cells with undamaged (intact) MMP ([9]; 2 × IC50, untreated control 92.6%): 23.0%; Effect on ROS production [10]: enhanced higher ROS production; ROS level ([10]; 2 × IC50, untreated cells 0.6%): 24.50% |
|  | C[C@H]1[C@H](C)CC[C@]2(C(=O)O)CC[C@]3(C)C(=CC[C@@H]4[C@@]5(C)CC[C@H](O)C(C)(C)[C@@H]5CC[C@]43C)[C@H]12 [Compound 9, ursolic acid] |  |  |  |  |  |  |  |  |  |  |  |  |  |  |  | IC50 [11]: 75 µM; IC50 (MCF-7 cells; MCF-7, converted from μg/mL, read-out: IC50): 15.6 µM; IC50 (MCF-7 cells; MCF-7): 7.1 µg/mL |
|  | CCC(CCC(C)C1CCC2C3CC=C4CC(OC5OC(CO)C(O)C(O)C5O)CCC4(C)C3CCC12C)C(C)C [Compound 10, 3-O-β-D-glucopyranoside of β-sitosterol] | > 50 | > 50 | > 50 | > 1.13 | > 50 |  | > 50 | > 50 |  | > 50 |  | > 50 |  | > 50 | 44.3 ± 3.91 | IC50 [12]: > 100 µM; Cytotoxic activity in the panel ([5]; 9 cancer cell lines, up to 50 µM): selectively active |
|  | COc1cccc2c1C(=O)c1c(O)c3c(c(O)c1C2=O)C[C@@](O)(C(=O)CO)C[C@@H]3O[C@H]1C[C@H](N)[C@H](O)[C@H](C)O1 [Doxorubicin, doxorubicin, reference compound] | 0.26 ± 0.03 | 4.56 ± 0.48 | 123 ± 10.9 | 6,683.00 | 0.98 ± 0.07 | 3.79 |  | 1.78 ± 0.08 | 3.73 | 0.79 ± 0.08 | 6.14 | 0.13 ± 0.01 |  | > 50 | 0.02 |  |
|  | OO [H2O2, hydrogen peroxide, reference compound] |  |  |  |  |  |  |  |  |  |  |  |  |  |  |  | ROS level ([10]; 50 µM, untreated cells 0.6%): 94.30% |
|  | CC(C)[C@@H]1NC(=O)[C@H](C)OC(=O)[C@@H](C(C)C)NC(=O)[C@@H](C(C)C)OC(=O)[C@H](C(C)C)NC(=O)[C@H](C)OC(=O)[C@@H](C(C)C)NC(=O)[C@@H](C(C)C)OC(=O)[C@H](C(C)C)NC(=O)[C@H](C)OC(=O)[C@@H](C(C)C)NC(=O)[C@@H](C(C)C)OC1=O [Valinomycin, valinomycin, reference compound] |  |  |  |  |  |  |  |  |  |  |  |  |  |  |  | Effect on the integrity of the MMP [9]: strongly altered the integrity of the MMP; Q1, cells with undamaged (intact) MMP ([9]; positive control, picture: at 25 (no unit), text: 2 × IC50): 38.6% |
